Measurements: patent US10155798B2, “Anti-obesity compounds derived from neuromedin U” (The Regents of the University of California, priority 2013, dated 2018)
Where a SMILES comes first, the peptide text is derived from it. [ ]: non-standard residue; d: D form. The star is where a group is joined. PEG12 = NCCOCCOCCOCCOCCOCCOCCOCCOCCOCCOCCOCCOCCC(=O)O; Oic = O=C(O)[C@@H]1C[C@@H]2CCCC[C@@H]2N1; Palmitoyl = CCCCCCCCCCCCCCCC(=O)*; Aib = CC(C)(N)C(=O)O; Ahx = NCCCCCC(=O)O

Legend:
[1] = target: T1, NMUR2 (neuromedin U 2 receptor) (Homo sapiens, UniProt Q9GZQ4); assay: Calcium mobilization assay, HEK-NMU2 cells; assay type: cell-based; details: HEK293 cells expressing NMU2 receptor, NA = not active
T1 construct: expressed in transfected cells; host or cells: HEK293 (HEK-NMU2)
T1 sequence (Q9GZQ4 whole entry): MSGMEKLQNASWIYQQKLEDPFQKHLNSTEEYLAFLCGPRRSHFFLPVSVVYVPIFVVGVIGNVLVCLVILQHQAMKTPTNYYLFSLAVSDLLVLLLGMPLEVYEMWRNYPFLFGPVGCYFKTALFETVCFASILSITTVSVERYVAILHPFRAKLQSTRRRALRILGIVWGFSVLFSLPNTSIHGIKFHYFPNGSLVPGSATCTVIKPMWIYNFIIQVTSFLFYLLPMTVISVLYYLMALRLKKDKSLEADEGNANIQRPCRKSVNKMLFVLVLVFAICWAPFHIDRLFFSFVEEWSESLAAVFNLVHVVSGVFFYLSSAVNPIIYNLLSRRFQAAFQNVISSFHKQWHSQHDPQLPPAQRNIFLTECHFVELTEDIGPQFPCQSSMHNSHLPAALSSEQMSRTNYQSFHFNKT
Method: To test whether neuromedin U can be modified/derivatized to yield truncated bioactive compound(s) that may be useful as therapeutics, we synthesized a small library (25 peptides) of hNMU analogs utilizing various stabilization protocols, including: cyclization, lipidation, introduction of α,α-disubstituted and N-methylated amino acids, retro-inverso-approach, and combination of such (see Table 1). Subsequently all analogues were tested against human neuromedin U receptors (NMUR1 and NMUR2) in calcium mobilization assay (collaboration with Dr Gary Willars, University of Leicester, UK).
HEK293 cells expressing either the neuromedin U 1 receptor or neuromedin U 2 receptor (HEK-NMU1 and HEK-NMU2 respectively) were grown to approximately 90% confluence in ELISA strip plates (96-well format) pre-coated with poly-D-lysine (0.1% w/v) and loaded for 45 min at 37° C. with 2 iM fluo-4-AM in Krebs'-HEPES buffer with bovine serum albumin (KHB-BSA; composition: 10 mM HEPES; 4.2 mM NaHCO3; 11.7 mM D-glucose; 1.18 mM MgSO4.7H2O; 1.18 mM KH2PO4; 4.69 mM KCl; 118 mM NaCl; 1.3 mM CaCl2.2H2O; 0.1% (w/v) BSA; pH 7.4). Monolayers were then washed and equilibrated for 5 min at 37° C. in 100 il KHB-BSA for subsequent recording of fluorescence as an index of intracellular [Ca^2+] ([Ca^2+]i) using a microplate reader (NOVOstar; BMG LABTECH, Aylesbury, U.K.). Briefly, 20 μl of KHB-BSA, with or without ligand, was added into the well (200 μl/s) and fluorescence determined at 0.5 s intervals by excitation at 485 nm and collection of emitted light at 520 nm. Changes in fluorescence above basal levels (before ligand addition) were determined. […] Fmax was obtained by removal of buffer and addition of KHB-BSA buffer containing 4 mM [Ca^2+] and ionomycin (2 μM) to representative wells and the fluorescence measured for 10 min. Fmin was then derived by replacing buffer with Ca^2+-free KHB-BSA buffer containing 2 mM EGTA and fluorescence measured for 10 min. For the determination of concentration-response relationships, the maximal change in [Ca^2+]i was calculated following ligand addition. Concentration-response curves were then fitted using a four-parameter logistic equation to determine EC50 values (GraphPad Software Inc., Calif.).

[2] = test system: diet induced obese (DIO) mouse model; assay: Single dose in vivo anorectic experiments in DIO mouse model; details: DIO mice; for anorectic activity, single dose: single dose 5344 nMole/kg, FIG. 3A
Source text: FIG. 3. Single dose in vivo experiments performed in DIO mouse model. (A) Comparison of anorectic effects of NM4 and NM7. (B) NM4 dose response experiments. (C) Comparison of NM4 and NM4A anorectic activity.
Initially we focused on single dose experiments comparing NM4 and NM7 at 5344 nMole/kg dose (FIG. 3).

[3] = cited from earlier work

CC(C)C[C@H](NC(=O)[C@H](Cc1ccccc1)NC(=O)CCCCCNC(=O)[C@@H](N)CS)C(=O)N[C@@H](Cc1ccccc1)C(=O)N[C@@H](CCCNC(=N)N)C(=O)N1[C@H](C(=O)N[C@@H](CCCNC(=N)N)C(=O)N[C@@H](CC(N)=O)C(=O)NCCCCCC(=O)N[C@@H](CS)C(N)=O)C[C@@H]2CCCC[C@@H]21 [NM9, C-Ahx-FL-Phe-Arg-Oic-R-Asn-Ahx-C] (H-C[Ahx]FLFR[Oic]RN[Ahx]C-NH2)
EC50 [1]: 0.708 ± 0.171 µM

CC(=O)N[C@@H](Cc1ccccc1)C(=O)N[C@@H](CC(C)C)C(=O)N[C@@H](Cc1ccccc1)C(=O)N[C@@H](CCCNC(=N)N)C(=O)N1CCC[C@H]1C(=O)N[C@@H](CCCNC(=N)N)C(=O)N[C@@H](CC(N)=O)C(N)=O [Peptide M1, Ac-FL-Phe-Arg-Pro-R-Asn] (Ac-FLFRPRN-NH2)
EC50 [1]: 0.0006 ± 0.00019 µM

CC(C)C[C@H](NC(=O)[C@H](Cc1ccccc1)NC(=O)C(C)(C)N)C(=O)N[C@@H](Cc1ccccc1)C(=O)N[C@@H](CCCNC(=N)N)C(=O)N1CCC[C@H]1C(=O)N[C@@H](CCCNC(=N)N)C(=O)N[C@@H](CC(N)=O)C(N)=O [Peptide M2, Aib-FL-Phe-Arg-Pro-R-Asn] (H-[Aib]FLFRPRN-NH2)
EC50 [1]: 0.00021 ± 7e-05 µM

CCCCCCCCCCCCCCCC(=O)NC(C)(C)C(=O)N[C@@H](Cc1ccccc1)C(=O)N[C@@H](CC(C)C)C(=O)N[C@@H](Cc1ccccc1)C(=O)N[C@@H](CCCNC(=N)N)C(=O)N1CCC[C@H]1C(=O)N[C@@H](CCCNC(=N)N)C(=O)N[C@@H](CC(N)=O)C(N)=O [Peptide M3, Pal-Aib-FL-Phe-Arg-Pro-R-Asn] (Palmitoyl-[Aib]FLFRPRN-NH2)
EC50 [1]: 0.17 ± 0.0349 µM

CCCCCCCCCCCCCCCC(=O)NCCOCCOCCOCCOCCOCCOCCOCCOCCOCCOCCOCCOCCC(=O)NC(C)(C)C(=O)N[C@@H](Cc1ccccc1)C(=O)N[C@@H](CC(C)C)C(=O)N[C@@H](Cc1ccccc1)C(=O)N[C@@H](CCCNC(=N)N)C(=O)N1CCC[C@H]1C(=O)N[C@@H](CCCNC(=N)N)C(=O)N[C@@H](CC(N)=O)C(N)=O [Peptide M4, Pal-dPEG12-Aib-FL-Phe-Arg-Pro-R-Asn] ({Palmitoyl-PEG12}-[Aib]FLFRPRN-NH2)
EC50 [1]: 0.0017 ± 0.00029 µM | anorectic activity, single dose [2]: significant anorectic activity | dose dependence of anorectic effects ([2]; single dose, FIG. 3B): dose-dependent

CC(C)C[C@H](NC(=O)[C@H](Cc1ccccc1)NC(=O)C(C)(C)N)C(=O)N[C@@H](Cc1ccccc1)C(=O)N[C@@H](CCCNC(=N)N)C(=O)N1CCC[C@H]1C(=O)N[C@@H](CCCNC(=N)N)C(=O)N[C@@H](CC(N)=O)C(=O)NC(C)(C)C(N)=O [Peptide M5, Aib-FL-Phe-Arg-Pro-R-Asn-Aib] (H-[Aib]FLFRPRN[Aib]-NH2)
EC50 [1]: 0.0501 ± 0.0162 µM

CCCCCCCCCCCCCCCC(=O)NCCOCCOCCOCCOCCOCCOCCOCCOCCOCCOCCOCCOCCC(=O)NC(C)(C)C(=O)N[C@@H](Cc1ccccc1)C(=O)N[C@@H](CC(C)C)C(=O)N[C@@H](Cc1ccccc1)C(=O)N[C@@H](CCCNC(=N)N)C(=O)N1CCC[C@H]1C(=O)N[C@@H](CCCNC(=N)N)C(=O)N[C@@H](CC(N)=O)C(=O)NC(C)(C)C(N)=O [Peptide M7, Pal-dPEG12-Aib-FL-Phe-Arg-Pro-R-Asn-Aib] ({Palmitoyl-PEG12}-[Aib]FLFRPRN[Aib]-NH2; N-terminus and C-terminus assumed)
anorectic activity, single dose [2]: very limited activity in vivo

CC(C)C[C@H](NC(=O)[C@H](Cc1ccccc1)NC(=O)CCCCCNC(=O)[C@@H](N)CS)C(=O)N[C@@H](Cc1ccccc1)C(=O)N[C@@H](CCCNC(=N)N)C(=O)N1CCC[C@H]1C(=O)N[C@@H](CCCNC(=N)N)C(=O)N[C@@H](CC(N)=O)C(=O)NCCCCCC(=O)N[C@@H](CS)C(N)=O [Peptide M8, C-Ahx-FL-Phe-Arg-Pro-R-Asn-Ahx-C] (H-C[Ahx]FLFRPRN[Ahx]C-NH2)
EC50 [1]: 0.24 ± 0.0357 µM

CC(C)C[C@H](NC(=O)[C@H](Cc1ccccc1)NC(=O)[C@H](Cc1ccc(O)cc1)NC(=O)CNC(=O)[C@H](CCCNC(=N)N)NC(=O)[C@H](CO)NC(=O)[C@H](CCC(N)=O)NC(=O)[C@H](CO)NC(=O)[C@H](C)NC(=O)[C@H](Cc1ccccc1)NC(=O)[C@@H]1CCCN1C(=O)[C@H](CO)NC(=O)[C@H](CCC(N)=O)NC(=O)[C@H](Cc1ccccc1)NC(=O)[C@H](CCC(=O)O)NC(=O)[C@H](CCC(=O)O)NC(=O)[C@H](CC(=O)O)NC(=O)[C@@H](NC(=O)[C@H](CCCNC(=N)N)NC(=O)[C@@H](N)Cc1ccccc1)C(C)C)C(=O)N[C@@H](Cc1ccccc1)C(=O)N[C@@H](CCCNC(=N)N)C(=O)N1CCC[C@H]1C(=O)N[C@@H](CCCNC(=N)N)C(=O)N[C@@H](CC(N)=O)C(N)=O [hNMU, FRVDEEFQSPFASQSRGY-FL-Phe-Arg-Pro-R-Asn, reference compound] (H-FRVDEEFQSPFASQSRGYFLFRPRN-NH2)
EC50 [1]: 0.00049 ± 0.00013 µM

Neuromedin U (FRVDEEFQSPFASQSRGYFLFRPRN) [NMU]
half-life after subcutaneous (sc) injection ([3]; subcutaneous injection): less than 5 min

semaglutide
plasma half-life ([3]; in vivo): 160 h
